The source of these data is ChEMBL document CHEMBL1148683, “Synthesis and monoamine transporter affinity of front bridged tricyclic 3beta-(4'-halo or 4'-methyl)phenyltropanes bearing methylene or carbomethoxymethylene on the bridge to the 2beta-position” (Bioorg Med Chem Lett, 2006).

Series [1] has as its target Sodium-dependent serotonin transporter (Homo sapiens, UniProt P31645). Briefly: Displacement of [3H]citalopram from human SERT transfected in HEK293 cells. Format: cell-based.
Series [2] addresses T1, Sodium-dependent noradrenaline transporter (Homo sapiens, UniProt P23975). Briefly: Displacement of [3H]nisoxetine from human NET transfected in HEK293 cells. Format: cell-based. In general terms: Loss of bound radioactivity is the signal in a displacement assay; it reports binding, not function.
The target in series [3] is Sodium-dependent dopamine transporter (Homo sapiens, UniProt Q01959). Briefly: Displacement of [125I]RTI-55 from human DAT transfected in HEK293 cells. It is filed as cell-based.
Sequence of Sodium-dependent dopamine transporter (Q01959 whole entry): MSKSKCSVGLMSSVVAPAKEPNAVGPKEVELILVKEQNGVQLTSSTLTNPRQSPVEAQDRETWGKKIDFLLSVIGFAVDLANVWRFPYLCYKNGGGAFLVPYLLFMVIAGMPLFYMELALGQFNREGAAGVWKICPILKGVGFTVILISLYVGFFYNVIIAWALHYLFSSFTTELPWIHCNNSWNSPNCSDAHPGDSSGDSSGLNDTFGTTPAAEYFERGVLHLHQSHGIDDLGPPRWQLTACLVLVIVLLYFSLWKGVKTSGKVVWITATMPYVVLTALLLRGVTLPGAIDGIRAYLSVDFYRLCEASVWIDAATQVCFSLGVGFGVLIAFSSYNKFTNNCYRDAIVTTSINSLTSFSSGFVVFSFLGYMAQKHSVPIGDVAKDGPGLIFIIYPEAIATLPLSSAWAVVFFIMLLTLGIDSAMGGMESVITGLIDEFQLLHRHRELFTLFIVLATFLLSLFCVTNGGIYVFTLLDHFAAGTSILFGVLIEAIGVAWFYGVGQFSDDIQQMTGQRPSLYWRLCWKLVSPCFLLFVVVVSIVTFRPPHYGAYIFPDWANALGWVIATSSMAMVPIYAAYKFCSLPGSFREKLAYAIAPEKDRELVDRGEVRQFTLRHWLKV
Series [4] has as its system Rhesus monkey. Briefly: Selective uptake in midbrain over occipital cortex of iv dosed rhesus monkey after 105 mins by microPET imaging assay. Format: ADME, organism-based, Macaca mulatta, Brain. To be noted: in vivo, 1.75 h.
For series [5], the system named is Rhesus monkey. Briefly: Selective uptake in cerebellum over occipital cortex of iv dosed rhesus monkey after 25 mins by microPET imaging assay. To be noted: in vivo. Format: ADME, organism-based, Macaca mulatta.
Series [6] concerns Rhesus monkey. Briefly: Selective uptake in caudate over occipital cortex of iv dosed rhesus monkey after 105 mins by microPET imaging assay. To be noted: in vivo, 1.75 h. Format: ADME, organism-based, Macaca mulatta.
Series [7] relates to Rhesus monkey. Briefly: Selective uptake in pons over occipital cortex of iv dosed rhesus monkey after 105 mins by microPET imaging assay. Format: ADME, organism-based, Macaca mulatta. To be noted: in vivo, 1.75 h.
Series [8] addresses T1, Sodium-dependent noradrenaline transporter. Briefly: Inhibition of (-)-[3H]NE uptake at NET.
Series [9] relates to Rhesus monkey. Briefly: Selective uptake in medulla over occipital cortex of iv dosed rhesus monkey after 105 mins by microPET imaging assay. To be noted: in vivo, 1.75 h. Format: ADME, organism-based, Macaca mulatta.
The test system of series [10] is Rhesus monkey. Briefly: Selective uptake in thalamus over occipital cortex of iv dosed rhesus monkey after 105 mins by microPET imaging assay. Format: ADME, organism-based, Macaca mulatta. To be noted: in vivo, 1.75 h.
Series [11] concerns Rhesus monkey. Briefly: Selective uptake in putamen over occipital cortex of iv dosed rhesus monkey after 105 mins by microPET imaging assay. Format: ADME, organism-based, Macaca mulatta. To be noted: in vivo, 1.75 h.
The target in series [12] is Serotonin and norepinephrine transporters (SERT/NET) (Homo sapiens) (UniProt P31645+P23975). Briefly: Selectivity for human SERT over NET. It is filed as protein assay.
Sequence of Serotonin and norepinephrine transporters (SERT/NET) (Homo sapiens) (P23975 whole entry, looked up): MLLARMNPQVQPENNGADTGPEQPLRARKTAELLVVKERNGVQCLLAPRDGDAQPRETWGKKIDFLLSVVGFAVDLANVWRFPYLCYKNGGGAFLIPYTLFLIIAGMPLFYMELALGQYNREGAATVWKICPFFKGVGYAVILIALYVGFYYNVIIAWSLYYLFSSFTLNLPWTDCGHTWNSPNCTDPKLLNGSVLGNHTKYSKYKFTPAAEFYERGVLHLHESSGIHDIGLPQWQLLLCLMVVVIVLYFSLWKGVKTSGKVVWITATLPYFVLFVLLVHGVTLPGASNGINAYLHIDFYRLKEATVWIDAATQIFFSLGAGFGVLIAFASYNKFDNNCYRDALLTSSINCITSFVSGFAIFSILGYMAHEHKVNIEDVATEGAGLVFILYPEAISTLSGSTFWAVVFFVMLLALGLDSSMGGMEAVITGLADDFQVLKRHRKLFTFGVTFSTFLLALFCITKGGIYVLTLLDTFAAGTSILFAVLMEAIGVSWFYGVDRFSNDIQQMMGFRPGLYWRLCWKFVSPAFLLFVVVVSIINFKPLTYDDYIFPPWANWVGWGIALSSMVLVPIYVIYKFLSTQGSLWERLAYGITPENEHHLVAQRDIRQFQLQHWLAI
Sequence of Serotonin and norepinephrine transporters (SERT/NET) (Homo sapiens) (P31645 whole entry, looked up): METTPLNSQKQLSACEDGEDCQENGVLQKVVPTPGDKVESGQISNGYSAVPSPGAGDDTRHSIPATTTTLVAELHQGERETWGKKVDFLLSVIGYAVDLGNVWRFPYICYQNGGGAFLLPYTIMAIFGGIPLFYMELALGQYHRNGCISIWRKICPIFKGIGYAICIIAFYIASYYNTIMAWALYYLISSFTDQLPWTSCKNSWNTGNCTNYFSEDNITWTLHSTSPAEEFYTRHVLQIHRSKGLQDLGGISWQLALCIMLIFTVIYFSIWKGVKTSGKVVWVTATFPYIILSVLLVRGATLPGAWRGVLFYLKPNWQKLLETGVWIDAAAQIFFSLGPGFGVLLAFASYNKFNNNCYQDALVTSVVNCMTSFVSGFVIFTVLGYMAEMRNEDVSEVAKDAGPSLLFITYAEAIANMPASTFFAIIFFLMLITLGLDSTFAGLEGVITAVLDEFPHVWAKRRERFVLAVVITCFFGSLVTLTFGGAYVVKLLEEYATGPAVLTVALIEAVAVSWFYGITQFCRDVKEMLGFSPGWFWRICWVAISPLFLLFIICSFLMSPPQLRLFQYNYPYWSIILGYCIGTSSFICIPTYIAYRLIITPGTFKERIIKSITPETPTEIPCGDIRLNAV
In series [13] the target is Monoamine transporters; serotonin & dopamine (Homo sapiens) (UniProt P31645+Q01959). Briefly: Selectivity for human SERT over DAT. Format: protein assay.
Sequence of Monoamine transporters; serotonin & dopamine (Homo sapiens) (P31645 whole entry, looked up): as above
Sequence of Monoamine transporters; serotonin & dopamine (Homo sapiens) (Q01959 whole entry, looked up): as the sequence (Q01959 whole entry) above

Sequence of Sodium-dependent serotonin transporter (P31645 whole entry): as the sequence (P31645 whole entry, looked up) above
T1 sequence (P23975 whole entry): as the sequence (P23975 whole entry, looked up) above

For the compound `C=C1CN2C3CCC2C1C(c1ccc(Br)cc1)C3` (stereo unspecified), the Ki in series [1] amounted to 0.28 nM; in series [2], 2.94 nM; in series [3], 41.9 nM.
For `C=C1CN2C3CCC2C1C(c1ccc(C)cc1)C3` (stereo unspecified), the Ratio is listed as 1.53 in [4]; 1.39 in series [5]; 1.47 in series [6]; 1.52 in series [7]; 1.36 in series [9]; 1.48 in [10]. Also, in [11], the Ratio turned out to be 1.83. For the same compound, the inhibition constant (Ki) came to 7.77 nM in series [1], 17.3 nM in series [2] and 41 nM in series [3]. In series [8], this compound yielded a concentration for half-maximal inhibition (IC50) of 2.2 nM.
With `C=C1CN2C3CCC2C1C(c1ccc(I)cc1)C3` (stereo unspecified), the figures for the Ki in series [1], in [2] and in [3] were 0.09 nM, 5.87 nM and 8.48 nM, respectively. Besides, the Selectivity ratio in series [12] turned out to be 65; in [13], 94.
On to `C=C1CN2C3CCC2C1C(c1ccc(Cl)cc1)C3` (stereo unspecified), for which the Ki in series [1] amounted to 0.82 nM; in [2], 4.84 nM; in series [3], 12.3 nM.
For `COC(=O)/C=C1/CN2C3CCC2C1C(c1ccc(Br)cc1)C3` (stereo unspecified) the same measures were 5.63 nM, 12.5 nM and 2.94 nM.
For `COC(=O)/C=C1/CN2C3CCC2C1C(c1ccc(Cl)cc1)C3` (stereo unspecified) the same measures were 18.7 nM, 13 nM and 4.54 nM.
For `COC(=O)/C=C1/CN2C3CCC2C1C(c1ccc(C)cc1)C3` (stereo unspecified) the same measures were 98.3 nM, 25.5 nM and 13.2 nM.

The Ki is a dissociation constant, usually derived from enzyme kinetics or from competition with a known ligand. Usually IC50 stands for the concentration at which inhibition is half-maximal.
